# Target: T1, Robo1 (Roundabout receptor 1; Robo1-GFP) (Homo sapiens, UniProt Q9Y6N7)
# T1 sequence (Q9Y6N7 60-265 limits assumed): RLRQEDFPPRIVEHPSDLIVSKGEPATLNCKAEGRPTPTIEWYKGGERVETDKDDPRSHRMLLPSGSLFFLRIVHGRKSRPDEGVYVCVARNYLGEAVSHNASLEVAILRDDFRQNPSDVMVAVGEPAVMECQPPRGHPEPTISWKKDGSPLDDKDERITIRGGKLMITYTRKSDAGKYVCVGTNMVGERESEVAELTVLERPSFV
# Experiment: SPR, Biacore T100, Robo1 immobilised on CM5
# Assay type: binding
# Conditions: HBS-EP pH 7.4, 150 mM NaCl, 25 °C; Langmuir 1:1 fit
row,Kd [µM],Substance
1,4.8,GlcA-GlcNS6S-IdoA-GlcNS-IdoA2S-GlcNS6S-IdoA-GlcNAc6S [compound 1]
2,~20,IdoA-GlcNS6S-IdoA-GlcNS6S [compound 19]

# Reference: paper PMC5068570 (Journal of the American Chemical Society, 2016)
